The results in this text go back to article PMC8485799, “Synthesis and Antiprotozoal Profile of 3,4,5‐Trisubstituted Isoxazoles” (ChemistryOpen, 2021).

The IC50 is the concentration at which inhibition is half-maximal. Broadly, the CC50 is the concentration giving 50% cytotoxicity. Low readings indicate harm at low concentration, high ones better tolerance by the cells. A word on the melting point: it is the temperature, or range, at which the solid turns liquid.

Each structure is given as a SMILES string.

The subject of series [1] is epimastigote forms of Trypanosoma cruzi (Y strain). In words: Antiproliferative assay (XTT), epimastigote forms, 96 h. It is filed as cell-based. Particulars: for IC50: Trypanosoma cruzi, epimastigote form, 96 h, XTT, read-out: T. cruzi IC50; for SIT-F, selectivity index (Fibroblast CC50/T. cruzi IC50): fibroblast vs epimastigote; for SIT-M, selectivity index (Macrophages CC50/T. cruzi IC50): macrophages vs epimastigote. The protocol: (§1) The antiproliferative activity was determined in promastigote forms of Leishmania amazonensis (WHOM/BR/75/JOSEFA strain) and epimastigote forms of Trypanosoma cruzi (Y strain). The promastigote forms of L. amazonensis were cultured in Warren medium (brain heart infusion, hemin, and folic acid; pH 7.4) supplemented with 10 % fetal bovine serum (FBS) at 25 °C. The epimastigote forms of T.cruzi were cultured in LIT medium (liver infusion tryptose; hemin, and folic acid; pH 7.4) supplemented with 10 % FBS at 28 °C. Cytotoxicity in mammalian cells was determined in fibroblast line (L929) and macrophages (J774 A1). Fibroblasts were cultured in DMEM medium (pH 7.2) supplemented with 10 % FBS at 37 °C in a 5 % CO2 atmosphere. Macrophages were cultured in RPMI‐1640 (pH 7.2) medium supplemented with 10 % FBS at 37 °C in a 5 % CO2 atmosphere.
(§2) Stock solutions of the compounds were prepared in DMSO and then diluted in the respective medium.
(§3) Promastigote forms (1×10^6 parasites.mL^−1) were cultured in 96‐well plates in the presence and absence of different concentrations of compounds diluted in Warren medium supplemented with 10 % FBS and incubated for 72 h. The epimastigote forms (1×10^6 parasites.mL^−1) were cultured in 96‐well plates in the presence and absence of different concentrations of compounds diluted in LIT medium supplemented with 10 % FBS and incubated for 96 h. After treatment, the parasites were incubated with a solution of 2,3‐bis(2‐methoxy‐4‐nitro‐5‐sulfophenyl)‐2H‐tetrazolium‐5‐carboxanilide (XTT; 0.5 mg.mL^−1) and phenazine methanesulfonate activator (PMS; 0.06 mg.mL^−1) in PBS for 4 h. Then, the absorbance was read in a microplate reader (Bio Tek‐Power Wave XS) at 450 nm.[20] The percentage of viable parasites was calculated in relation to the control in order to determine the concentration that inhibits 50 % of the protozoa (IC50). The control groups of each experiment received the same experimental conditions as the treated groups (cell concentration used, temperature, and incubation time).
(In general: Tetrazolium assays rely on reduction of a dye to a coloured formazan, in cell work by metabolically active cells.)

For series [2], the system named is promastigote forms of Leishmania amazonensis (WHOM/BR/75/JOSEFA strain). Kind of series: Antiproliferative assay (XTT), promastigote forms, 72 h. The series is classed as cell-based. Particulars: for IC50: Leishmania amazonensis, promastigote form, 72 h, XTT, read-out: L. amazonensis IC50; for SIL-F, selectivity index (Fibroblast CC50/L. amazonensis IC50): fibroblast vs promastigote; for SIL-M, selectivity index (Macrophages CC50/L. amazonensis IC50): macrophages vs promastigote. The protocol: as §1, §2, §3

Series [3] can be described thus: Cytotoxicity assay in mammalian cells (MTT), macrophages, 48 h. The series is classed as cell-based. Particulars: mouse, J774 A1 macrophages, pH 7.2; 50 % inhibition of macrophages growth, 48 h, MTT. The protocol:
as §1, §2
(§4) Fibroblast cell (2.5×10^5 cells.mL^−1) suspensions were prepared in DMEM medium supplemented with 10 % FBS and added to 96‐well plates. Then, the plates were incubated at 37 °C in a CO2 atmosphere for 24 h to obtain confluent cell growth. After incubation, cells were treated with different concentrations of compounds diluted in DMEM for 72 h or left untreated. Macrophage (5×10^5 cells.mL^−1) suspensions were prepared in RPMI‐1640 medium supplemented with 10 % FBS and added to 96‐well plates. Then, the plates were incubated at 37 °C in a CO2 atmosphere for 24 h to obtain confluent cell growth. After incubation, cells were treated with different concentrations of compounds diluted in RPMI‐1640 for 48 h or left untreated. After treatment, the medium was removed, and cells were incubated with MTT (2 mg.mL^−1) for 4 h. Then, DMSO was added for solubilization of the formazan and analyzed with a reading microplate reader (BIO‐TEK PowerWave XS spectrophotometer) at […].[20] The percentage of viable cells was calculated in relation to the untreated control group to determine the cytotoxic concentration in 50 % of the cells (CC50). The control groups of each experiment received the same experimental conditions as the treated groups (cell concentration used, temperature, CO2, and incubation time).

Series [4] is described as follows: Cytotoxicity assay in mammalian cells (MTT), fibroblasts, 72 h. It is filed as cell-based. Particulars: mouse, L929 fibroblast cells, pH 7.2; 50 % inhibition of fibroblast growth, 72 h, MTT. The protocol: as §1, §2, §4

With `NNC(=O)c1noc(-c2ccc(F)cc2)c1CNc1ccc(Cl)cc1` [3 cb], the melting point lay within 178.1 to 181.2 °C. Also, the half-inhibitory concentration (IC50) in series [1] is above 200 µM. In series [2], the half-maximal inhibitory concentration (IC50) was 172 ± 10.4 µM; the “SIL-F, selectivity index (Fibroblast CC50/L. amazonensis IC50)” value (“SIL-F, selectivity index” below) was found to be 4.67; the “SIL-M, selectivity index (Macrophages CC50/L. amazonensis IC50)” value (“SIL-M, selectivity index” below) came out at 4.04. In addition, it took 694 ± 10.7 µM to reach half-maximal cytotoxicity in series [3] (CC50 at 48 h). The same compound came in with a 50% cytotoxic concentration (CC50) at 72 h in series [4] of 802 ± 11.4 µM.

`COc1ccc(NCc2c(C(=O)NN)noc2-c2ccc(F)cc2)cc1` [3 cc] gave a melting point of 171.1 to 173.6 °C. Also, in series [1], the half-maximal inhibitory concentration (IC50) was 65.3 ± 3.6 µM; the “SIT-F, selectivity index (Fibroblast CC50/T. cruzi IC50)” value (from here on “SIT-F, selectivity index”) was 2.54; the “SIT-M, selectivity index (Macrophages CC50/T. cruzi IC50)” value (shortened to “SIT-M, selectivity index”) worked out at 2.29. Moreover, in series [2], the 50% inhibitory concentration (IC50) came out at 59.2 ± 5.7 µM; the “SIL-F, selectivity index” value turned out to be 2.80; the “SIL-M, selectivity index” value is 2.53. The CC50 at 48 h in series [3] amounted to 150 ± 4.4 µM. This compound also came in with a CC50 at 72 h in series [4] of 166 ± 9.6 µM.

For `NNC(=O)c1noc(-c2ccc(Cl)cc2)c1CNc1ccccc1` [3 da], the melting point was in the range of 202.8 to 205.6 °C. For the same compound, in series [1], the concentration for half-maximal inhibition (IC50) turned out to be 27.9 ± 2.3 µM; the “SIT-F, selectivity index” value worked out at 10.93; the “SIT-M, selectivity index” value is recorded as 9.20. In series [2], the IC50 amounted to 23.1 ± 1.5 µM; the “SIL-F, selectivity index” value amounted to 13.21; the “SIL-M, selectivity index” value came to 11.12. It took 257 ± 6.8 µM to reach half-maximal cytotoxicity in series [3] (CC50 at 48 h). The same compound gave a half-maximal cytotoxic concentration (CC50) at 72 h in series [4] of 305 ± 11.4 µM.

On to `NNC(=O)c1noc(-c2ccc(Cl)cc2)c1CNc1ccc(Cl)cc1` [3 db], for which the melting point is 175.9 to 177.8 °C. In series [1], the concentration for half-maximal inhibition (IC50) came out at 55.7 ± 10.2 µM; the “SIT-F, selectivity index” value is reported as 6.84; the “SIT-M, selectivity index” value was 6.03. Also, in series [2], the 50% inhibitory concentration (IC50) turned out to be 59.1 ± 4.6 µM; the “SIL-F, selectivity index” value is on record as 6.44; the “SIL-M, selectivity index” value came to 5.68. In series [3], this compound had a CC50 at 48 h of 336 ± 5.1 µM. For the same compound, the CC50 at 72 h in series [4] was 381 ± 4.2 µM.

Take `COc1ccc(NCc2c(C(=O)NN)noc2-c2ccc(Cl)cc2)cc1` [3 dc]: the melting point is 157 to 158.8 °C. In series [1], the IC50 was determined as 49.5 ± 2.9 µM; the “SIT-F, selectivity index” value came to 6.25; the “SIT-M, selectivity index” value is 4.24. In addition, in series [2], the IC50 came to 55.8 ± 3.9 µM; the “SIL-F, selectivity index” value turned out to be 5.55; the “SIL-M, selectivity index” value is given as 3.76. The CC50 at 48 h in series [3] came out at 210 ± 3.5 µM. Also, the CC50 at 72 h in series [4] was found to be 310 ± 8.9 µM.

As for `O=C(N/N=C/c1ccccc1)c1noc(-c2ccc([N+](=O)[O-])cc2)c1CNc1ccccc1` [4 aa, 3‐[(2E)‐N'‐(Benzylidene)hydrazinecarbonyl]‐4‐(phenyl)aminomethyl‐5‐(4‐nitrophenyl)isoxazole], the melting point fell in the range of 92.6 to 94.4 °C. For the same compound, in series [1], the IC50 is 35.1 ± 4.6 µM and the “SIT-M, selectivity index” value is given as 2.86. In series [2], the IC50 was 40.7 ± 3.2 µM; the “SIL-F, selectivity index” value was determined as 2.90; the “SIL-M, selectivity index” value is given as 2.47. For the same compound, in series [3], the midpoint of cytotoxicity, the CC50 at 48 h, lay at 100 ± 6 µM. In series [4], this compound registered a CC50 at 72 h of 118 ± 7.3 µM.

As for `O=C(N/N=C/c1ccccc1)c1noc(-c2ccc([N+](=O)[O-])cc2)c1CNc1ccc(Cl)cc1` [4 ab], the melting point was 177.6 to 179 °C. Also, in series [1], the half-maximal inhibitory concentration (IC50) amounted to 147 ± 10.7 µM; the “SIT-F, selectivity index” value is reported as 2.71; the “SIT-M, selectivity index” value is recorded as 1.96. In addition, in series [2], the IC50 came out at 133 ± 8.8 µM; the “SIL-F, selectivity index” value amounted to 3.01; the “SIL-M, selectivity index” value came out at 2.18. In series [3], this compound showed a CC50 at 48 h of 287.4 ± 2.3 µM. In series [4], the half-maximal cytotoxic concentration (CC50) at 72 h was 398 ± 6.9 µM.
